In patent publication EP0609289B1, “IMIDAZOLE DERIVATIVES AND PHARMACEUTICAL COMPOSITIONS CONTAINING THE SAME” (THE UPJOHN COMPANY, priority 1991, dated 1993):

Key:
Angiotensin II receptor = assay: In vitro angiotensin II mesenteric artery receptor binding assay (test 1); settings: rat mesenteric artery membrane fraction, 0.2 nM 125I-Ang II, 22°C, 90 minutes
Outline: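 Rat mesenteric artery membranes ([…] protein equivalent) incubated with 0.2 nM ^125I-Ang II and compound, 90 min at 22°C, pH 7.2 Tris buffer. Bound radioactivity counted after filtration; nonspecific binding defined with 1 µM unlabeled angiotensin II.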

[1] = test system: angiotensin II constriction in an isolated rabbit thoracic aorta; assay: Antagonism to angiotensin II constriction in an isolated rabbit thoracic aorta (test 3); settings: test compound 10^-6 M for 20 minutes
Experimental: 3) Antagonism to angiotensin II constriction in an isolated rabbit thoracic aorta
A rectangular strip-like sample of thoracic aorta isolated from an anaesthetized rabbit was prepared, and the sample was suspended at 2.0 g of loaded tension in a Magnus tube filled with Krebs-Henseleitoid nutrition solution which was well aerated with 95% O2-5% CO2, and the constriction tension was measured using an isometric transducer. After the tension of the sample at rest became stable, accumulative administration of angiotensin II was carried out to obtain a concentration-action curve. Thereafter, the sample was washed with the same nutrition solution, then treated with test compound (10^-6 M) for 20 minutes to obtain again a concentration-action curve of angiotensin II. The results were obtained as followed: generated maximum tension at the first accumulative administration of angiotensin II was regarded as 100 %, and the 50 % effective concentration (ED50) was obtained in the presence or absence of the test compound, and pA2 value was calculated according to the following equations: • pA2=-logKB KB=C/{(A'/A)-1} • C; concentration of the test compound (M) • A'; ED50 in the presence of test compound (M) • A; ED50 in the absence of the test compound (M)

[2] = test system: blood pressure increase by angiotensin II; assay: Antagonism to blood pressure increase by angiotensin II in a spine destroyed (pithed) rat (test 4); type: in vivo, Wistar rat; settings: intravenous administration, 3µg/kg angiotensin II, read-out: Inhibition of blood pressure increase by angiotensin II in pithed rat ED50(mg/kg) (test 4)
Text: 4) Antagonism to blood pressure increasing by angiotensin II in a spine destroyed rat
Wistar rat anaesthetized with pentobarbital was fixed at dorsal position, and a cannula for measuring blood pressure was inserted into sinister arteria carotis communis, and a cannula for administration of the test compound into dexter external jugular vein and a cannula for administration of angiotensin II into sinister external jugular vein, ambilateral nervus vagus was cut, and artificial respiration was carried out. A thin bar made of metal was stabbed into spinal column through sinister orbita to destroy spine. Blood pressure was recorded on polygraph via pressure transducer from an arterial cannula. After blood pressure was stable for more than 30 min., 3µg/kg of angiotensin II was administered intravenously four times every 15 min, and every 5 min. before the administration of angiotensin II from the second administration onward, a solvent, a lower dose of the test compound, and a higher dose of the test compound were administered intravenously in this order to observe the blood pressure increasing response by angiotensin II. ED50 values were calculated from the inhibiting rate when the first blood pressure increase by angiotensin II was regarded as 100 %.

[3] = test system: blood pressure increase by angiotensin II; assay: Blood pressure increase by angiotensin II-inhibiting test, intraduodenal administration, anesthetized normotensive rat; type: in vivo
[4] = test system: hypertensive rat model (SHR); assay: Oral administration test in hypertensive rat model (SHR); type: in vivo; settings: 10 mg/kg oral administration

Row | Compound | IC50 (Angiotensin II receptor) | Inhibition of rabbit aorta constriction pA2 (test 3) [1] | ED50 [2] | ED50 [3] | action lasting time ([3]; 3 mg/kg) | action lasting time ([3]; 1 mg/kg) | vasodepressor activity [4]
1 | CCCc1nc2c(n1Cc1ccc(-c3ccccc3-c3nnn[nH]3)cc1)C(=O)N1N(C2)C2(CC)CCC1(CC)CC2 [Compound No. 454, 5,8-diethyl-5,8-ethano-2-n-propyl-5,6,7,8-tetrahydro-1-[{2'-(1H-tetrazol-5-yl)biphenyl-4-yl}methyl]-1H,4H-1,3,4a,8a-tetraza-cyclopentanaphthalene-9-one] | 3.5 nM | 10.34 | 0.34 mg/kg | 1.28 mg/kg | not less than 5 hours | – | –
2 | CCCCc1nc2c(n1Cc1ccc(-c3ccccc3-c3nnn[nH]3)cc1)C(=O)N1N(C2)C2(CC)CCC1(CC)CC2 [Compound No. 455, 2-n-butyl-5,8-diethyl-5,8-ethano-5,6,7,8-tetrahydro-1-[{2'-(1H-tetrazol-5-yl)biphenyl-4-yl}methyl]-1H,4H-1,3,4a,8a-tetraza-cyclopentanaphthalene-9-one] | 3.3 nM | 8.82 | 0.64 mg/kg | 0.81 mg/kg | – | not less than 5 hours | –
3 | CCCc1nc2c(=O)n3n(c(=O)c2n1Cc1ccc(-c2ccccc2-c2nnn[nH]2)cc1)C(C)CCC3C(=O)NC(C)(C)C (stereo not drawn) [Compound No. 207, 4,9-dioxo-8-methyl-2-n-propyl-5,6,7,8-tetrahydro-1-[{2'-(1H-tetrazol-5-yl)biphenyl-4-yl}methyl]-1H-1,3,4a,8a-tetraza-cyclopentanaphthalene-5-carboxy-N-t-butylamide] | 3.9 nM | 10.1 | 0.033 mg/kg | – | – | – | –
4 | CCCc1nc2c(=O)n3n(c(=O)c2n1Cc1ccc(-c2ccccc2-c2nn[nH]n2)cc1)C(C)CCC3C(=O)OCC (stereo not drawn) [Compound No. 139, ethyl 4,9-dioxo-8-methyl-2-n-propyl-5,6,7,8-tetrahydro-1-[(2'-(1H-tetrazol-5-yl)biphenyl-4-yl)methyl]-1H-1,3,4a,8a-tetraza-cyclopentanaphthalene-5-carboxylate] | 1.9 nM | 10.63 | 0.038 mg/kg | – | – | – | –
5 | CCCc1nc2c(=O)n3n(c(=O)c2n1Cc1ccc(-c2ccccc2-c2nn[nH]n2)cc1)C1C=CC3CC1 (stereo not drawn) [Compound No. 105, 5,8-dihydro-5,8-ethano-2-n-propyl-1-[(2'-(1H-tetrazol-5-yl)biphenyl-4-yl)methyl]-1H-1,3,4a,8a-tetraza-cyclopentanaphthalene-4,9-dione] | 1.5 nM | 9.42 | 0.1 mg/kg | – | – | – | –
6 | CCCc1nc2c(n1Cc1ccc(-c3ccccc3-c3nn[nH]n3)cc1)C(=O)N1N(C2)C2(C)CCC1(C)CC2 [Compound No. 450, 5,8-dimethyl-5,8-ethano-2-n-propyl-5,6,7,8-tetrahydro-1-[{2'-(1H-tetrazol-5-yl)biphenyl-4-yl}methyl)-1H,4H-1,3,4a,8a-tetraza-cyclopentanaphthalene-9-one] | 1.7 nM | 9.92 | 0.32 mg/kg | 0.95 mg/kg | not less than 5 hours | – | –
7 | CCCc1nc2c(=O)n3n(c(=O)c2n1Cc1ccc(-c2ccccc2-c2nn[nH]n2)cc1)C1CCC3CC1 [Compound No. 108, 5,8-ethano-2-n-propyl-5,6,7,8-tetrahydro-1-[(2'-(1H-tetrazol-5-yl)biphenyl-4-yl)methyl]-1H-1,3,4a,8a-tetraza-cyclopentanaphthalene-4,9-dione] | 1.9 nM | 9.53 | 0.069 mg/kg | – | – | – | –
8 | CCCCc1nc2c(n1Cc1ccc(-c3ccccc3-c3nn[nH]n3)cc1)C(=O)N1N(C2)C2(C)CCC1(C)CC2 [Compound No. 451, 2-n-butyl-5,8-dimethyl-5,8-ethano-5,6,7,8-tetrahydro-1-[{2'-(1H-tetrazol-5-yl)biphenyl-4-yl}methyl]-1H,4H-1,3,4a,8a-tetraza-cyclopentanaphthalene-9-one] | 1.9 nM | 10.04 | 0.63 mg/kg | 0.84 mg/kg | – | not less than 5 hours | significant vasodepressor activity over 24 hours
